Experiments:
[1] = system: mPFC low frequency delta activity; assay: mPFC low frequency delta field potential oscillation power, anesthetized rat; assay type: in vivo
Procedure: Experiments were performed on n=10 adult male Sprague-Dawley rats (275–305 g) under urethane anesthesia (1.5 g/kg, i.p.). The femoral vein was cannulated for i.v. administration of drugs. A stimulation electrode was placed in the CA1/subiculum region (coordinates: A-P = +6.3 mm, M–L = +5.2 mm, D-V = +8.0 mm) using stereotactic methods and unilateral local field potential (LFP) was recorded by a metal monopolar macroelectrode placed into the medial PFC (mPFC; coordinates: A-P = +3.0 mm, M-L = +0.6 mm, D-V = +5.0 mm). […] Evoked responses to the first and the second stimuli were identified (P1 and P2, respectively) and the amount of PPF determined by the formula: (P2 amplitude/P1 amplitude). Waveform averages used to calculate PPF consisted of 60 consecutive stimuli. Five minutes were allowed between administration of each drug dose and the starting of the subsequent average of each 10-min period after each cumulative dose (0.1–1 mg/kg, IV). Disruption in power of LFP delta activity was measured as the percentage of power in low frequency (0–1.8 Hz) irregular activity in the total (0–4 Hz) delta power range. LFP power spectra were determined during periods concurrent with waveform averages and PPF calculation. Statistical significance was determined by means of two-tailed paired Student’s t-test.

[2] = Plasma exposure (PK), NHP; assay type: in vivo; settings: 0.1 mg/kg SC, 0.5 h
Procedure: Across the set of experiments, PK was either collected from satellite animals or in separate, dedicated studies. In addition to plasma PK, exposures were obtained in brain tissue for rat and mouse, and plasma protein binding and brain tissue binding were measured. Using the measured exposures, partitioning, and binding parameters, and the […]

mouse locomotor activity = assay: Mouse locomotor activity (LMA); assay type: in vivo
Procedure: Locomotor activity data were measured by an automated infrared photo-beam system in sound attenuating chambers controlled by Versamax® software, provided by Accuscan Instruments Inc. (Columbus, Ohio), which quantified beam breaks similar to the methods used previously ([Xu et al., 2000]). To test D1 receptor selectivity in a pharmacologic model, C57BL/6J mice were habituated to the apparatus for 90 min, followed by pretreatment with vehicle or SCH-23390 (0.01, 0.032, 0.1 0.32, s.c.) and returned to the apparatus for 30 min. […] Data were compared against the vehicle group using a repeated measures one-way ANOVA with a Dunnett’s post-test. To test D1 receptor selectivity in a genetic model, DRD1a WT and knockout mice (D1 KO) were habituated to the apparatus for 90 min, pretreated with vehicle or SCH-23390 (0.032 mg/kg, s.c.) and returned to the apparatus for 30 min. […] Data were compared within genotype using a two-way ANOVA with a Dunnett’s post-hoc test versus vehicle treated group.

[3] = system: acetylcholine levels in the PFC of WT and D1 KO mice; assay: Prefrontal cortex acetylcholine levels via microdialysis, WT and D1 KO mouse; assay type: in vivo; settings: 10 mg/kg SC
Text: Adult male Sprague-Dawley rats (280–360 g) were obtained from Charles-River Laboratories, Raleigh, NC and male C57BL/6J DRD1a WT and D1 DA receptor knockout mice (DRD1a-905781) were obtained from The Jackson Laboratories (Bar Harbor, ME). Animals were housed on a 12-h light/dark cycle with free access to food and water and allowed to acclimate for at least 5 d after arrival. Aseptic technique was used during the surgical procedure in order to prevent infection. On the day of the procedure animals were anesthetized with isoflurane (4%) and their heads shaved. The animals were then placed into a Kopf stereotaxic frame, the surgical area disinfected by swabbing with Provodine solution, and the area isolated with a sterile surgical drape. Anesthesia was maintained with isoflurane (2.5%–3%) delivered through a nose cone using a Univentor 400 anesthesia unit. Animals were given a 0.1 ml subcutaneous (s.c.) injection of Metacam (NSAID, meloxicam, 5 mg/ml, Boehringer Ingelheim) as a post-operative analgesic. Marcaine (bupivacaine, 0.5%, Hospira, Lake Forest, IL), a long acting local anesthetic, was administered s.c. at the surgical area to minimize pain and discomfort.
A 1.5–2 cm incision was made along the midline of the skull, beginning from a point just behind the eyes and running posterior. The skin was retracted with hemostats and the skull was further exposed using blunt dissection with cotton swabs. Bleeding capillaries were cauterized, and the skull dried with a sterile gauze sponge.
A microdialysis guide cannula [Bioanalytical Systems Inc (BAS), West Lafayette, IN, part # MD-2251] was placed into a guide holder on the stereotaxic frame and positioned over “Bregma”. The guide cannula was positioned over the PFC (A-P, +3.2 mm; M-L, +0.7 mm, left, relative to bregma) and the location marked on the skull. Using a 0.7 mm burr, a hole was made in the skull at the cannula position. […]
For conventional analysis, ACh was analyzed by high performance liquid chromatography (HPLC) utilizing a modification of the BAS ACh-choline assay kit (BAS part # MF-8910). […]

human D5 receptor = settings: stated in discussion, no data or reference printed; cited from earlier work

For Cc1cc(Oc2nccc3occc23)ccc1-c1c(C)ncc2nccn12 [PF-6142], the “MK-801-induced increases in low frequency delta” value ([1]; PF-6142 0.1-1 mg/kg IV cumulative) was “dose-dependently reversed”, the “MK-801-induced increases in low frequency delta activity after SCH-23390 pretreatment” value ([1]; PF-6142 cumulative IV up to 3 mg/kg (p=0.11)) was “no effect” and the PF-6142 plasma concentration [2] was 31 ng/mL. The “horizontal activity, five consecutive days of dosing” value (mouse locomotor activity; 1.78 mg/kg daily) was “did not significantly increase horizontal activity”, the “horizontal activity, five consecutive days of dosing” value (mouse locomotor activity; 3.2 mg/kg s.c. daily (p=0.0311 day 4, p=0.0309 day 5)) was “only increased activity significantly on days 4 and 5” and the “locomotor activity, five consecutive days of dosing” value (mouse locomotor activity; 10 mg/kg s.c. daily, CD-1 mice) was “increased locomotor activity”. For the same compound, the locomotor activity (mouse locomotor activity; D1 KO mice, 10 mg/kg s.c. (p=0.6731)) was “did not show hyperactivity”, the locomotor activity (mouse locomotor activity; WT mice, 10 mg/kg s.c.) was “increased activity in the WT mice” and the “horizontal activity (beam breaks, 2 h)” value (mouse locomotor activity; acute 0.32-10 mg/kg s.c., significant at 10 mg/kg (p<0.0001)) was “dose-dependently increased horizontal activity”. For the same compound, the “PFC ACh levels vs vehicle (AUC 75-180 min)” value ([3]; D1 KO mice) was “not in the KO group”, the “PFC ACh levels vs vehicle (AUC 75-180 min)” value ([3]; WT mice) was “increased ACh levels” and the affinity (human D5 receptor) was “moderate affinity”.

Source: article PMC7358525, “Characterization of PF-6142, a Novel, Non-Catecholamine Dopamine Receptor D1 Agonist, in Murine and Nonhuman Primate Models of Dopaminergic Activation” (Frontiers in Pharmacology, 2020)
